Measured values reported in patent US11376268B2, “Methods and materials for treating human immunodeficiency virus infections” (priority 2015, dated 2022).

How the values were obtained:
[1] = system: J-Lat cells (a model of HIV latency using GFP HIV); test: J-Lat cells time course flow cytometry (FIG. 8); assay type: cell-based; settings: analyzed at 24, 48, and 72 hours
Method: J-Lat cells (a model of HIV latency using GFP HIV) were treated with bortezomib or ixazomib at the indicated doses and analyzed at 24, 48, and 72 hours.

[2] = system: CD4 T cells from an HIV positive patient with ART suppressed HIV replication; test: Flow cytometry of CD4 T cells from an HIV positive patient for intracellular p24 and activated caspase 3 (FIG. 7); assay type: cell-based, human; settings: 48 hours
Method: FIG. 7 contains flow cytometry results of CD4 T cells from an HIV positive patient with ART suppressed HIV replication. Cells were treated with bortezomib or MLN-2238 (ixazomib) at the indicated doses and analyzed 48 hours later for intracellular p24 expression (as a measure of HIV reactivation), and for activated caspase 3 expression (as a measure of cell death).

HDAC-3 = HDAC-3 expression in primary CD4 T cells (FIG. 11); assay type: cell-based
Method: (§1) FIG. 11. […] Proteosome inhibitors were analyzed for the ability to alter the expression of HDAC. Bortezomib and ixazomib decreased HDAC-1, HDAC-3, and HDAC-4 expression in primary CD4 T cells.

HDAC-4 = HDAC-4 expression in primary CD4 T cells (FIG. 11); assay type: cell-based
Method: as §1

HIV-LTR = test: Luc expression in primary CD4 T cells infected with HIV luc or transfected with HIV-LTR Luc (FIG. 9); assay type: cell-based; settings: primary CD4 T cells infected with HIV luc or transfected with HIV-LTR Luc and TK renilla
Method: Primary CD4 T cells infected with HIV luc (top panel) or primary CD4 T cells transfected with HIV-LTR Luc and co-transfected TK renilla (bottom panel) were treated with the indicated doses of bortezomib or ixazomib, and analyzed for Luc expression as a measure of HIV reactivation.

UPR pathway [3] = test: UPR pathway activation in J Lat cells: phospho PERK, phospho IRE1, JNK (FIG. 12); assay type: cell-based; settings: bortezomib (10 nM) or ixazomib (50 nM)
Method: FIG. 12. J-LAT-10.6 or Jurkat cells were treated with bortezomib (10 nM) or ixazomib (50 nM) for the indicated times. Bortezomib and ixazomib induced phospho PERK, phospho IRE1, and JNK activation in J Lat cells, indicating the activation of the UPR pathway.

HDAC-1 = HDAC-1 expression in primary CD4 T cells (FIG. 11); assay type: cell-based
Method: as §1

UPR pathway [4] = test: UPR pathway activation in J Lat cells: ATF4 and CHOP nuclear translocation, ATF6 cleavage (FIG. 13); assay type: cell-based; settings: bortezomib (10 nM) or ixazomib (50 nM)
Method: FIG. 13. J-LAT-10.6 or Jurkat cells were treated with bortezomib (10 nM) or ixazomib (50 nM) for the indicated times. Bortezomib and ixazomib induced ATF4 and CHOP translocation into the nucleus, and ATF6 cleavage in J Lat cells, indicating the activation of the UPR pathway.

[5] = system: J-Lat cells (a model of HIV latency, using GFP tagged HIV); test: J-Lat cells flow cytometry for HIV GFP expression and activated caspase 3 (FIG. 6); assay type: cell-based; settings: 24 hours, bortezomib 1, 10, or 20 nM, MLN-2238 (ixazomib) 10 or 50 nM
Method: FIG. 6 contains flow cytometry results of J-Lat cells (a model of HIV latency, using GFP tagged HIV) treated with nothing, bortezomib (1, 10, or 20 nM), or MLN-2238 (ixazomib; 10 or 50 nM) and analyzed 24 hours later for activated caspase 3 expression and for HIV expression.

CC(C)C[C@H](NC(=O)[C@H](Cc1ccccc1)NC(=O)c1cnccn1)B(O)O [bortezomib, N-pyrazinecarbonyl-L-phenylalanine-L-leucine boronic acid]
HIV reactivation from latency [1]: caused HIV reactivation from latency | HIV reactivation (intracellular p24 expression) [2]: caused HIV reactivation as indicated by increased HIV p24 expression | death of HIV positive cells (activated caspase 3 expression in p24 positive cells) [2]: caused HIV positive cells to die | HDAC-3 expression (HDAC-3): decreased | HDAC-4 expression (HDAC-4): decreased | HIV reactivation (Luc expression) (HIV-LTR): independently reactivated HIV | JNK activation (UPR pathway [3]): induced | phospho IRE1 (UPR pathway [3]): induced | phospho PERK (UPR pathway [3]): induced | HDAC-1 expression (HDAC-1): decreased | ATF4 translocation into the nucleus (UPR pathway [4]): induced | ATF6 cleavage (UPR pathway [4]): induced | CHOP translocation into the nucleus (UPR pathway [4]): induced | HIV reactivation (HIV GFP expression) [5]: caused HIV reactivation as indicated by increased HIV GFP expression | death of HIV GFP positive cells (activated caspase 3 expression) [5]: caused HIV GFP positive cells to die
